Test results taken from PMC9934367, “Functional impact of subunit composition and compensation on Drosophila melanogaster nicotinic receptors–targets of neonicotinoids” (PLOS Genetics, 2023).

Test system: D. melanogaster nAChRs
Assay: Comparison of agonist activity between nAChRs expressed in X. laevis oocytes (one-way ANOVA, Kruskal-Wallis)
Assay type: cell-based
Description: We minimised the use of X. laevis according to the UK Animals (Scientific Procedures) Act, 1986. […] Oocytes were defolliculated after collagenase treatment in Ca^2+-free standard oocyte saline (Ca^2+-free SOS). cRNAs of the nAChR subunits and co-factors mixed at a concentration of 0.1 mg/mL was injected into oocytes at a volume of 50 nL. Then the oocytes were incubated in the incubation medium (SOS supplemented with sodium pyruvate (Nacalai Tesque, #13058–12), penicillin-streptomycin (MilliporeSigma, #P4333), gentamycin (Nacalai Tesque, #16672–04), and 4% horse serum (Thermo Fisher Scientific, #26050–070) for 3−4 days prior to electrophysiology.
Each defolliculated X. laevis oocyte was secured in a Perspex recording chamber and perfused with the standard oocyte saline (SOS) containing 0.5 μM atropine (SOSA) at a flow rate of 7−10 mL/min [48]. Two glass electrodes filled with 2 M KCl were impaled into each oocyte and the membrane potential was clamped at -100 mV. […] The peak amplitude of the response was measured and analysed by pCLAMP (Molecular Devices, USA).
Y=Imax/1+10^(logEC50‐X)nH
Where Y is the normalised response, X is log[ligand (M)], EC50 is the half maximal concentration (M), Imax is the maximum normalised response and nH is the Hill coefficient.
Prism software was employed for the statistical analyses. […] One-way ANOVA was used to analyse the differences of the ligand agonist activity in terms of pEC50 on the various nAChRs expressed in X. laevis as well as data obtained with D. melanogaster larvae and adults.

[1] = Dα1/Dβ1/Dβ2 vs. Dα1/Dα3/Dβ1/Dβ2
[2] = Dα1/Dβ1/Dβ2 vs. Dα2/Dα3/Dβ1/Dβ2
[3] = Dα1/Dβ1 vs. Dα1/Dα2/Dα3/Dβ1/Dβ2
[4] = Dα2/Dα3/Dβ1/Dβ2 vs. Dα1/Dα2/Dα3/Dβ1/Dβ2
[5] = Dα2/Dα3/Dβ1 vs. Dα1/Dα2/Dα3/Dβ1
[6] = Dα2/Dα3/Dβ1 vs. Dα1/Dα2/Dα3/Dβ1/Dβ2
[7] = Dα2/Dα3/Dβ1 vs. Dα1/Dα2/Dβ1/Dβ2
[8] = Dα2/Dα3/Dβ1 vs. Dα1/Dα3/Dβ1/Dβ2
[9] = Dα2/Dα3/Dβ1 vs. Dα2/Dα3/Dβ1/Dβ2
[10] = Dα3/Dβ1/Dβ2 vs. Dα1/Dα2/Dα3/Dβ1/Dβ2
[11] = Dα3/Dβ1/Dβ2 vs. Dα1/Dα2/Dβ1/Dβ2
[12] = Dα3/Dβ1/Dβ2 vs. Dα1/Dα3/Dβ1/Dβ2
[13] = Dα3/Dβ1/Dβ2 vs. Dα2/Dα3/Dβ1/Dβ2
[14] = Dα3/Dβ1 vs. Dα1/Dα2/Dα3/Dβ1/Dβ2

In the case of `CN/C(=N\[N+](=O)[O-])NCc1cnc(Cl)s1` [Clothianidin, clothianidin], the “Difference of Imax values, nAChRs compared” value (from here on “Difference of Imax values”) [1] is reported as -0.324, the “Difference of pEC50 values, nAChRs compared” value (from here on “Difference of pEC50 values”) [1] is reported as -0.76 and the “Difference of Imax values” value [2] is reported as -0.274. For the same compound, the “Difference of pEC50 values” value [2] was -0.65, the “Difference of Imax values” value (Dα1/Dβ1/Dβ2 vs. Dα3/Dβ1/Dβ2) was -0.132 and the “Difference of pEC50 values” value (Dα1/Dβ1/Dβ2 vs. Dα3/Dβ1/Dβ2) was -0.82. For the same compound, the “Difference of Imax values” value (Dα1/Dβ1 vs. Dα1/Dα2/Dα3/Dβ1) was -0.309, the “Difference of pEC50 values” value (Dα1/Dβ1 vs. Dα1/Dα2/Dα3/Dβ1) was 0.58 and the “Difference of Imax values” value [3] was -0.304. The “Difference of pEC50 values” value [3] was 0.54, the “Difference of Imax values” value (Dα1/Dβ1 vs. Dα1/Dα2/Dβ1) was -0.191 and the “Difference of pEC50 values” value (Dα1/Dβ1 vs. Dα1/Dα2/Dβ1) was 2.06. The “Difference of Imax values” value (Dα1/Dβ1 vs. Dα1/Dα2/Dβ1/Dβ2) was -0.292, the “Difference of pEC50 values” value (Dα1/Dβ1 vs. Dα1/Dα2/Dβ1/Dβ2) was 0.82 and the “Difference of Imax values” value (Dα1/Dβ1 vs. Dα1/Dα3/Dβ1) was -0.119. For the same compound, the “Difference of pEC50 values” value (Dα1/Dβ1 vs. Dα1/Dα3/Dβ1) was -0.07, the “Difference of Imax values” value (Dα1/Dβ1 vs. Dα1/Dα3/Dβ1/Dβ2) was -0.176 and the “Difference of pEC50 values” value (Dα1/Dβ1 vs. Dα1/Dα3/Dβ1/Dβ2) was -0.27. The “Difference of Imax values” value (Dα1/Dβ1 vs. Dα1/Dβ1/Dβ2) was 0.148, the “Difference of pEC50 values” value (Dα1/Dβ1 vs. Dα1/Dβ1/Dβ2) was 0.49 and the “Difference of Imax values” value (Dα1/Dβ1 vs. Dα2/Dα3/Dβ1) was -0.374. For the same compound, the “Difference of pEC50 values” value (Dα1/Dβ1 vs. Dα2/Dα3/Dβ1) was 0.32, the “Difference of Imax values” value (Dα1/Dβ1 vs. Dα2/Dα3/Dβ1/Dβ2) was -0.126 and the “Difference of pEC50 values” value (Dα1/Dβ1 vs. Dα2/Dα3/Dβ1/Dβ2) was -0.16. The “Difference of Imax values” value (Dα1/Dβ1 vs. Dα3/Dβ1) was -0.183, the “Difference of pEC50 values” value (Dα1/Dβ1 vs. Dα3/Dβ1) was -0.41 and the “Difference of Imax values” value (Dα1/Dβ1 vs. Dα3/Dβ1/Dβ2) was 0.016. For the same compound, the “Difference of pEC50 values” value (Dα1/Dβ1 vs. Dα3/Dβ1/Dβ2) was -0.33, the “Difference of Imax values” value [4] was -0.178 and the “Difference of pEC50 values” value [4] was 0.70. The “Difference of Imax values” value [5] was 0.065, the “Difference of pEC50 values” value [5] was 0.26 and the “Difference of Imax values” value [6] was 0.070. For the same compound, the “Difference of pEC50 values” value [6] was 0.22, the “Difference of Imax values” value [7] was 0.082 and the “Difference of pEC50 values” value [7] was 0.50. For the same compound, the “Difference of Imax values” value [8] was 0.198, the “Difference of pEC50 values” value [8] was -0.59 and the “Difference of Imax values” value (Dα2/Dα3/Dβ1 vs. Dα1/Dβ1/Dβ2) was 0.522. For the same compound, the “Difference of pEC50 values” value (Dα2/Dα3/Dβ1 vs. Dα1/Dβ1/Dβ2) was 0.17, the “Difference of Imax values” value [9] was 0.248 and the “Difference of pEC50 values” value [9] was -0.48. For the same compound, the “Difference of Imax values” value (Dα2/Dα3/Dβ1 vs. Dα3/Dβ1/Dβ2) was 0.390, the “Difference of pEC50 values” value (Dα2/Dα3/Dβ1 vs. Dα3/Dβ1/Dβ2) was -0.65 and the “Difference of Imax values” value [10] was -0.320. For the same compound, the “Difference of pEC50 values” value [10] was 0.87, the “Difference of Imax values” value [11] was -0.308 and the “Difference of pEC50 values” value [11] was 1.15. For the same compound, the “Difference of Imax values” value [12] was -0.192, the “Difference of pEC50 values” value [12] was 0.06 and the “Difference of Imax values” value [13] was -0.142. The “Difference of pEC50 values” value [13] was 0.17, the “Difference of Imax values” value (Dα3/Dβ1 vs. Dα1/Dα2/Dα3/Dβ1) was -0.126 and the “Difference of pEC50 values” value (Dα3/Dβ1 vs. Dα1/Dα2/Dα3/Dβ1) was 0.99. For the same compound, the “Difference of Imax values” value [14] was -0.121, the “Difference of pEC50 values” value [14] was 0.95 and the “Difference of Imax values” value (Dα3/Dβ1 vs. Dα1/Dα2/Dβ1) was -0.008. For the same compound, the “Difference of pEC50 values” value (Dα3/Dβ1 vs. Dα1/Dα2/Dβ1) was 2.47, the “Difference of Imax values” value (Dα3/Dβ1 vs. Dα1/Dα2/Dβ1/Dβ2) was -0.109 and the “Difference of pEC50 values” value (Dα3/Dβ1 vs. Dα1/Dα2/Dβ1/Dβ2) was 1.23. The “Difference of Imax values” value (Dα3/Dβ1 vs. Dα1/Dα3/Dβ1) was 0.064, the “Difference of pEC50 values” value (Dα3/Dβ1 vs. Dα1/Dα3/Dβ1) was 0.34 and the “Difference of Imax values” value (Dα3/Dβ1 vs. Dα1/Dα3/Dβ1/Dβ2) was 0.007. For the same compound, the “Difference of pEC50 values” value (Dα3/Dβ1 vs. Dα1/Dα3/Dβ1/Dβ2) was 0.14, the “Difference of Imax values” value (Dα3/Dβ1 vs. Dα1/Dβ1/Dβ2) was 0.331 and the “Difference of pEC50 values” value (Dα3/Dβ1 vs. Dα1/Dβ1/Dβ2) was 0.90. For the same compound, the “Difference of Imax values” value (Dα3/Dβ1 vs. Dα2/Dα3/Dβ1) was -0.191, the “Difference of pEC50 values” value (Dα3/Dβ1 vs. Dα2/Dα3/Dβ1) was 0.73 and the “Difference of Imax values” value (Dα3/Dβ1 vs. Dα2/Dα3/Dβ1/Dβ2) was 0.057. The “Difference of pEC50 values” value (Dα3/Dβ1 vs. Dα2/Dα3/Dβ1/Dβ2) was 0.25, the “Difference of Imax values” value (Dα3/Dβ1 vs. Dα3/Dβ1/Dβ2) was 0.199 and the “Difference of pEC50 values” value (Dα3/Dβ1 vs. Dα3/Dβ1/Dβ2) was 0.08.
